Experiments:
Type in all cases: biochemical
[1] = test system: MMP-2 or 9; experiment: BIOMOL colorimetric assay kit screen of botanical extracts, MMP-2 or 9 proteolytic activity; details: first round screening; relative to Doxycycline
Description: (§1) In excess of 80 botanical extracts (BE), were screened in vitro for inhibition against MMP-2, 8, & 9 proteolytic activity. […] Individual calorimetric assay kits (BIOMOL) were used according to the manufacturer's instructions to measure the proteolytic activity of MMP's-2, 8, and 9 in the presence or absence of individual extracts and define mixtures of extracts. The known MMP-inhibitor, Doxycycline was used as an internal standard for comparison of inhibiting activity. The following final concentrations of individual ingredients are combined (along with additional confirmatory test of the “neat” ingredients). Again all tests include a “gold standard” positive control (Doxycycline). The purpose of this interference testing is to see whether combined ingredients result in different levels of inhibition for all three MMP's (2, 8, 9) than found for individual ingredients. All samples are dissolved or extracted in water where practical and otherwise specified.

[2] = target: T1, MMP-8 (Homo sapiens, UniProt P22894); experiment: BIOMOL colorimetric assay kit screen of botanical extracts, MMP-8 proteolytic activity; details: first round screening; relative to Doxycycline
T1 construct: purchased BIOMOL
Description: as §1

[3] = target: T2, Recombinant MMP-2 (Homo sapiens, UniProt P08253); experiment: MMP-2 enzyme assay with DQ gelatin fluorescent substrate; details: 22° C., EAB pH 7.0, soluble phase of extracts
T2 construct: made in house
T2 sequence (P08253 110-660): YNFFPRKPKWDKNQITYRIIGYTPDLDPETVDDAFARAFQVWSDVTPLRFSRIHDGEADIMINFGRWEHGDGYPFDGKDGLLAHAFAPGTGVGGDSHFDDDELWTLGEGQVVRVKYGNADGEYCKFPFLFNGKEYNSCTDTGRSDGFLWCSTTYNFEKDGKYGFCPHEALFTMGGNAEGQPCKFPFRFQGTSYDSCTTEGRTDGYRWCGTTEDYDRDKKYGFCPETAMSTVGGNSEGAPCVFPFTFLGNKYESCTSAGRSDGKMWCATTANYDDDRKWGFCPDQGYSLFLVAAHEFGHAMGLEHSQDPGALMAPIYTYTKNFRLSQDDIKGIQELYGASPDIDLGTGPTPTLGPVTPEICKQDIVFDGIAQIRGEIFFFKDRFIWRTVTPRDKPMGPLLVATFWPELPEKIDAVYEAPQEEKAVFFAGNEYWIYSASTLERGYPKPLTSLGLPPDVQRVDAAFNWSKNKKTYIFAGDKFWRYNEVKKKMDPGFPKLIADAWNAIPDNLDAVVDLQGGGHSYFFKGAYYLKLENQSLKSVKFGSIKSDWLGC
Protocol: (§2) From the studies of repeated activity and lack of interference, we were able to identify three lead ingredients for further development (A, C, D; A & B were two forms of the same dried extract). These were tested in a second laboratory, using a more sensitive in vitro (non-cellular) assay system, again for individual activity and interference/synergy among MMP-inhibitors and the IL-1-inhibitor against all three forms of MMP. These assays used enzyme kinetic dose curves to determine the IC50 of each extract, Doxycyclin, and combinations of extracts (including the IL-1-inhibitor, e.g., Rosehips).
MMP-2 and MMP-9: Recombinant MMP-2 and MMP-9 were expressed as recombinant proteins and purified in constitutively active forms.
DQ gelatin: A highly labeled porcine gelatin substrate (Molecular Probes, Eugine, Oreg.) was used for the enzyme assays with MMP-2 and MMP-9. The substrate degradation was measured with λex at 494 nm and λem at 515 nm
To reduce any self-degradation of the gelatin substrate, all assays were performed at 22° C. The enzyme assay buffer (EAB) used for MMP-2, MMP-9, and MMP-8 was 50 mM Tris, pH 7.0, 200 mM NaCl, 5 mM CaCl2, 1 μM ZnCl2, 0.05% Brij 35. Assays were performed under conditions where the substrates were not rate limiting. […]

[4] = target: T3, MMP-8 (purified human neutrophil collagenase) (Homo sapiens, UniProt P22894); experiment: MMP-8 enzyme assay with fluorescent peptide substrate; details: APMA-activated MMP-8, 22° C., EAB pH 7.0
T3 construct: purchased EMD Biosciences/Calbiochem 444229
Protocol: as §2
MMP-8: Purified human neutrophil collagenase was purchased from EMD
Biosciences/Calbiochem, cat # 444229. Activation of MMP-8 was required for the experiments and was performed using aminophenylmercuric acetate (APMA) for 2 h at 37° C.
Peptide substrate: The fluorescent peptide substrate Mca-Pro-Leu-Gly-Leu-Dnp-Ala-Arg-NH2 was for measuring the MMP-8 activities (Peptides International, Louisville, Ky.). The Mca is a fluorescent group and Dnp is a quencher. When the cleavage occurs, a strong fluorescent signal is released and can be measured with λex at 328 nm and λem at 393 nm.
To reduce any self-degradation of the gelatin substrate, all assays were performed at 22° C. […]

T3 sequence (P22894 101-467): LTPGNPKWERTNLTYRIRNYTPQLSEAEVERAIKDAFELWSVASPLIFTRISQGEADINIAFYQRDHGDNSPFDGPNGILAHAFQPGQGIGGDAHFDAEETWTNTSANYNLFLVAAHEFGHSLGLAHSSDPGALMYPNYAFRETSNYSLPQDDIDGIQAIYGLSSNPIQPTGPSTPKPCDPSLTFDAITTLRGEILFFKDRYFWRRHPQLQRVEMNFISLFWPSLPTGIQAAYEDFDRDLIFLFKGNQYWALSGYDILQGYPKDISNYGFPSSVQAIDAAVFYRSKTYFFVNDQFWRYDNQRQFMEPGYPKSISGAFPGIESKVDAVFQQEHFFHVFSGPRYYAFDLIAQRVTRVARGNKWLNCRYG
T1 sequence (P22894 100-262 limits assumed): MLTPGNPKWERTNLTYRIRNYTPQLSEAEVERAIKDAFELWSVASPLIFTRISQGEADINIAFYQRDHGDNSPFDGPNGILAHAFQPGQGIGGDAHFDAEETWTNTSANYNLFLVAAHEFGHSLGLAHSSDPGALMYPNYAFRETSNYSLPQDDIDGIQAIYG

SMILES	Inhib. Relative to Doxy. (Fold = % inhib X/% inhib Dox), MMP-2 or 9 [1] [Fold]	Inhib. Relative to Doxy. (Fold = % inhib X/% inhib Dox), MMP-8 [2] [Fold]	IC50 for MMP-2 [3] [µg/mL]	IC50 for MMP-8 [4] [µg/mL]
O=c1c(O)c(-c2ccc(O)c(O)c2)oc2cc(O)cc(O)c12 [E) Quercetin, Quercetin]	1.56	0.82		
C[C@H]1c2cccc(O)c2C(O)=C2C(=O)[C@]3(O)C(O)=C(C(N)=O)C(=O)[C@@H](N(C)C)[C@@H]3[C@@H](O)[C@@H]21 [DOX, Doxycycline]			32	35

— patent publication US20070275104A1, “Food Compositions and Methods of Treating Periodontal Disease” (priority 2006, published 2007)
